Measurements published in patent US20240358669A1, “METHODS FOR TREATING PANCREATIC CANCER” (Olatec Therapeutics, Inc., priority 2022, published 2024).

Experiments:
[1] = tested on: KPC cells, a murine PDAC cell line; assay: Orthotopic KPC pancreatic cancer model in mice, dapansutrile diet (Example 1); type: in vivo, C57BL/6 male mice; conditions: dapansutrile diet 7.5 g/kg food ad libitum from surgery, sacrifice after 21 days, vs standard diet
Method: C57BL/6 male mice (8 weeks old) were purchased from Jackson Laboratories (Bar Harbor, ME). Mice were anesthetized and following opening the abdominal cavity, the tip of pancreatic tail was gently grasped, and the pancreas/spleen was externalized in a lateral direction, exposing the entire pancreatic body and spleen. 100,000 KPC cells, a murine PDAC cell line, were mixed 1:1 with Matrigel (VF=20 μl) and injected into the tail of the pancreas. The pancreas was then gently internalized with blunt forceps and the abdominal muscle layer, and the skin was closed separately with absorbable sutures.
Following the initial injections of KPC cells, tumor bearing mice were monitored daily until the sacrifice after 21 days. At sacrifice, tumor volume and weight were assessed in the vehicle (n=16) and OLT1177® (dapansutrile)-treated mice (n=16).
From the date of surgery, mice were treated with oral dapansutrile via feed pellets ad libitum. The composition of the food is the standard mouse chow enriched with 7.5 gr of dapansutrile per kilogram of food. […]
At sacrifice, tumor volume in different groups was calculated using the modified ellipsoidal formula V=(LW^2)/2, where L is the length of the longest tumor dimension parallel to the skin containing the tumor midpoint, W is the length of the tumor dimension perpendicular to L and parallel to the skin, and V is tumor volume in cubic millimeters (mm^3).

[2] = tested on: KPC cells, a murine PDAC cell line; assay: Orthotopic KPC pancreatic cancer model in mice, dapansutrile and gemcitabine combination (Example 2); type: in vivo, C57BL/6 male mice; conditions: sacrifice after 21 days; gemcitabine 100 mg/kg i.p. every three days from day 10; dapansutrile diet; vs PBS vehicle (combination also vs monotherapies)
Method: Tumor-bearing mice were prepared according to Example 1 and monitored daily until the sacrifice after 21 days.
Mice treated with dapansutrile were fed with dapansutrile by the same protocol as described in Example 1.
Control mice received PBS
At sacrifice, tumor volume and tumor weight were assessed in the 4 groups of mice.

non-immune cells = assay: Effect of dapansutrile on non-immune cell proliferation
COX2/PGE2 = assay: Effect of dapansutrile on COX2/PGE2; conditions: immunosuppressive pathway in PDAC
NLRP3 inflammasome = NLRP3 inflammasome (Homo sapiens, UniProt Q96P20); conditions: cited from earlier work
[3] = healthy subjects, oral; cited from earlier work

NLRP3 inflammasome, sequence (Q96P20 whole entry): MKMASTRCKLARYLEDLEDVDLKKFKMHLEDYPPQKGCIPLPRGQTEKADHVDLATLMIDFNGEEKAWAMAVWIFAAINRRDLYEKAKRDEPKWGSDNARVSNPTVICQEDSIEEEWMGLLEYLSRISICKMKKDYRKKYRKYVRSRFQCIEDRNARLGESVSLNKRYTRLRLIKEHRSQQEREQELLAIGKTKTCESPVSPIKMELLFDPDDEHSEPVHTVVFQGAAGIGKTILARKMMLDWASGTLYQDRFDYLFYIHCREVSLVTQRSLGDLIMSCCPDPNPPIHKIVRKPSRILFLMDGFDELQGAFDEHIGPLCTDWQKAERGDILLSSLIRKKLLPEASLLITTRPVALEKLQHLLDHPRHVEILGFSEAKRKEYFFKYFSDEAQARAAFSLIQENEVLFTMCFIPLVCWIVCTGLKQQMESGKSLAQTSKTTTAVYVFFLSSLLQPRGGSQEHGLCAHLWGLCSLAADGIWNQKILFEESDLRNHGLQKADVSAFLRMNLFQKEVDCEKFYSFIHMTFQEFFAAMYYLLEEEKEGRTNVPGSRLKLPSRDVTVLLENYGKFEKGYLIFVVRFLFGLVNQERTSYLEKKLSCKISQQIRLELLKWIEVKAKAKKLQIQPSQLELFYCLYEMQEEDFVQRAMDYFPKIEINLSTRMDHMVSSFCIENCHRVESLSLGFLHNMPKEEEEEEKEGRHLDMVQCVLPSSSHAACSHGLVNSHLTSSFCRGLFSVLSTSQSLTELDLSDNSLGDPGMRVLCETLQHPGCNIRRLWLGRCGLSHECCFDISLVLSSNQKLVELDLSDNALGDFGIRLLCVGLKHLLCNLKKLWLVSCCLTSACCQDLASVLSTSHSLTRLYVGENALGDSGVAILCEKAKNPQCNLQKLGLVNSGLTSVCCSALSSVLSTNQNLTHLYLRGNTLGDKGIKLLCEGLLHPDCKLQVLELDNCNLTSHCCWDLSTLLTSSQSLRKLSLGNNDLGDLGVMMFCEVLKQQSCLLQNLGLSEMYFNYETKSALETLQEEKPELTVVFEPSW

Compound	tumor volume ([1]; p<0.0001)	tumor weight ([1]; p<0.01)	tumor volume [2]	tumor weight [2]	non-immune cells proliferation (non-immune cells)	COX2/PGE2 (COX2/PGE2)	inhibition of the NLRP3 inflammasome (NLRP3 inflammasome)	safety when orally administered [3]
CS(=O)(=O)CCC#N [dapansutrile, 3-methanesulfonyl-propionitrile]	reduced tumor volume	reduced tumor weight	significant reduction	significant reduction	no effect	significant reduction	selectively inhibit	safe
Nc1ccn([C@@H]2O[C@H](CO)[C@@H](O)C2(F)F)c(=O)n1 [gemcitabine, Gemcitabine, reference compound]	–	–	–	significant reduction	–	–	–	–
